Among the data in PubChem BioAssay (NCI) are GI50 and TGI values, retold here.

Assay in all cases: NCI-60 cell line screen, 48 h
In assay [1] the test system is HS 578T breast.
The test system of assay [2] is MDA-MB-231 breast.
The subject of assay [3] is MDA-MB-435.
Assay [4] has as its system NCI/ADR-RES ovarian.
For assay [5], the system named is PC-3 prostate.
The test system of assay [6] is DMS 114 small cell lung.
Assay [7] concerns KM20L2 colon.
The subject of assay [8] is SNB-78 CNS.

Molecules are shown by their SMILES.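 Protocol summary: plate cells (96-well), add compound at 5 concentrations, incubate 48 h, interpolate endpoints linearly. GI50 is the concentration that inhibits growth by half. The concentration for full growth arrest is given as TGI.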

Turning to `COc1ccc(C2SCC(=O)N2NC(=O)C(O)c2ccccc2)cc1OC` (stereo not given), the GI50 in assay [1], in assay [2], in assay [3], in assay [4] and in assay [5] was greater than 100 µM throughout. Besides, the TGI in assay [1], in assay [2], in assay [3], in assay [4] and in assay [5] was greater than 100 µM throughout.

For the compound `Oc1ccc(C(c2ccc(O)cc2)c2ccc(Cl)cn2)cc1`, the GI50 in assay [1] is 0.0216 µM; in assay [2] it was 28 µM; in assay [3], 23.3 µM; in assay [4], 0.0512 µM; in assay [5], 0.194 µM. Besides, the TGI in assay [1] was 0.0624 µM; in assay [2], greater than 100 µM; in assay [3], greater than 86.2 µM; in assay [4] it was 0.284 µM; in assay [5], 0.708 µM.

With `CC1(C)CC[C@H](Nc2ncc(C(F)(F)F)c(-c3c[nH]c4c(P(C)(C)=O)c(C#N)ccc34)n2)CN1`, the GI50 in assay [1] is 0.736 µM; in assay [2], 0.4 µM; in assay [3] it was 0.038 µM; in assay [4], 3.18 µM; in assay [5], 0.0396 µM. Besides, the TGI in assay [1] was 10.6 µM; in assay [2], 9.08 µM; in assay [3], 12 µM; in assay [4] it was 27.6 µM; in assay [5], 43.3 µM.

Regarding `O=C(/C=C/C12c3ccccc3C(c3ccccc31)C1C(=O)N(c3ccccc3)C(=O)C12)c1ccccc1` (stereo not given), the GI50 is 2.32 µM in assay [1]; 2.23 µM in assay [2]; 2.56 µM in assay [3]; 2.23 µM in assay [4]; 2.07 µM in assay [5]. The TGI was greater than 100 µM in assay [1]; 6.77 µM in assay [2]; greater than 100 µM in assay [3]; greater than 100 µM in assay [4]; greater than 100 µM in assay [5].

Consider `O=C(O)[C@@H]1[C@H](C(=O)O)[C@H](C(=O)O)C[C@@H]1C(=O)O`, for which the TGI in assay [1], in assay [2], in assay [3], in assay [4] and in assay [5] was greater than 100 µM throughout.

For the compound `C/C(=N\O)c1cccc(Nc2cc(-n3ccnn3)c3ccccc3n2)c1`, the GI50 was 16.4 µM in assay [1]; 10.2 µM in assay [2]; 15.4 µM in assay [3]; 20.8 µM in assay [4]; 15.6 µM in assay [5]. The TGI in assay [1] was 87.8 µM; in assay [2], 25.9 µM; in assay [3] it was 34.2 µM; in assay [4] it was greater than 100 µM; in assay [5] it was 38 µM.

For `CCC(=O)O[C@H]1CC[C@H]2[C@@H]3CC[C@H]4CC(=O)[C@H](C)C[C@]4(C)[C@H]3CC[C@]12C`, the GI50 in assay [1] was 44 µM; in assay [2], greater than 90.8 µM; in assay [3], 48.7 µM; in assay [4], 38.3 µM; in assay [5], 10.5 µM. The TGI in assay [1], in assay [2], in assay [3], in assay [4] and in assay [5] was greater than 100 µM throughout.

Regarding `COc1ccc2c(c1)/C(=C\c1cccnc1)C(=O)N2`, the GI50 in assay [1] is 31.1 µM; in assay [2], 16.3 µM; in assay [3], 35.9 µM; in assay [4], 25.4 µM; in assay [5], 33.1 µM. For the same compound, the TGI is 94.7 µM in assay [1]; 35.5 µM in assay [2]; greater than 100 µM in assay [3]; 70.1 µM in assay [4]; greater than 100 µM in assay [5].

Consider `COc1ccc(-c2oc3c(OC)c(OC)c(OC)c(O)c3c(=O)c2OC)cc1OC`, for which the TGI is 17.3 µM in assay [1]; greater than 100 µM in assay [2]; 32.9 µM in assay [3]; greater than 72 µM in assay [4]; greater than 93 µM in assay [5].

On to `O=C(c1ccc(Cl)cc1)c1ccc(OCCCCCCCCCCOc2ccc(C(=O)c3ccc(Cl)cc3)cc2)cc1`, for which the TGI in assay [6], in assay [7] and in assay [8] was greater than 100 µM throughout.

On to `O=C(Nc1cccs1)c1c(O)[nH]c(=S)[nH]c1=O`, for which the TGI in assay [6] and in assay [7] was greater than 100 µM throughout.

Take `C=CCN(/C=C1/C(=O)O[C@H](COC)[C@@]2(C)C1=C(O)C(=O)C1=C2[C@H](OC(C)=O)C[C@]2(C)C(=O)CC[C@@H]12)CC=C`: the GI50 in assay [1] is 0.128 µM; in assay [2], 6.23 µM; in assay [3], 2.68 µM; in assay [4], greater than 4.75 µM; in assay [5], 0.177 µM. Also, the TGI in assay [1] is 1.94 µM; in assay [2], greater than 10 µM; in assay [3], greater than 10 µM; in assay [4], greater than 10 µM; in assay [5], greater than 10 µM.

`CCCn1c(SC)nc(COC(=O)NC)c1COC(=O)NC`: the TGI in assay [1], in assay [2], in assay [3], in assay [4] and in assay [5] was greater than 100 µM throughout.

Turning to `CCOC(=O)C1=C(c2ccccc2)N(C)c2ccccc2S1`, the TGI was 72.3 µM in assay [1]; 58.9 µM in assay [2]; greater than 100 µM in assay [3]; 65.1 µM in assay [4]; greater than 100 µM in assay [5].

In the case of `Cc1ccc(/C(=N\N=C(N)N)c2ccccc2)cc1`, the GI50 is 0.349 µM in assay [1]; 0.394 µM in assay [2]; 0.203 µM in assay [3]; 1.09 µM in assay [4]; 0.406 µM in assay [5]. For the same compound, the TGI was 3.67 µM in assay [1]; 3.93 µM in assay [2]; 0.631 µM in assay [3]; 4.51 µM in assay [4]; 18.7 µM in assay [5].

As for `FC(F)(F)c1cc(-c2nnc3n2N=C(N2CCCC2)CS3)cc(C(F)(F)F)c1`, the GI50 is 17.9 µM in assay [1]; 32.2 µM in assay [2]; greater than 50 µM in assay [3]; greater than 50 µM in assay [4]; greater than 50 µM in assay [5]. The TGI in assay [1], in assay [2], in assay [3], in assay [4] and in assay [5] was greater than 50 µM in each case.
